The target of one assay is T1, p38 α2 (Homo sapiens, UniProt Q16539).
T1 construct: His; made in house; host or cells: E. coli
The experiment in a line: p38 kinase in vitro assay. Particulars: in vitro kinase biochemical assay. Here is the method:
Purified and His-tagged p38 α2 (expressed in E. Coli) was activated in vitro by MMK-6 to a high specific activity. Using a microtiter format, all reactions were conducted in 100 μL volumes with reagents diluted to yield 0.05 μg/well of activated p38 α2 and 10 μg/well of myelin basic protein in assay buffer (25 mM HEPES 7.4, 20 mM MgCl2, 150 mM NaCl). Test compounds (5 μL of a 10% DMSO solution in water) were prepared and diluted into the assay to cover a final concentration range from 5 nM to 2.5 μM. The kinase assay was initiated by addition of 25 μL of an ATP cocktail to give a final concentration of 10 μM cold ATP and 0.2 μCi [gamma-^33P] ATP per well (200-400 dpm/pmol of ATP). The plate was incubated at 32° C. for 35 min., and the reaction quenched with 7 μL of a 1 N aq HCl solution. The samples were harvested onto a P30 Filtermat (Wallac, Inc.) using a TomTec 1295 Harvester (Wallac, Inc.), and counted in a LKB 1205 Betaplate Liquid Scintillation Counter (Wallac, Inc.). Negative controls included substrate plus ATP alone. SW1353 cellular assay: SW1353 cells (human chondro-sarcoma) are seeded (1000 cells/100 μL DMEM 10% FCS/well) into 96-well plates and incubated overnight. […] Cultures are incubated for 48 h at 37° C., then supernatant IL-6 values are determined by ELISA.

A further assay has as its system pERK in MDA-MB-231 cells. The experiment in a line: Bio-Plex phospho-ERK 1/2 immunoassay (basal pERK). In kind it is cell-based. Particulars: Homo sapiens, 2 h incubation. Here is the method:
A 96 well pERK immunoassay, using laser flow cytometry (Bio-Rad) platform has been established to measure inhibition of basal pERK in breast cancer cell line. MDA-MB-231 cells were plated at 50,000 cells per well in 96 well microtitre plates in complete growth media. For effects of test compounds on basal pERK½ inhibition, the next day after plating, MDA-MB-231 cells were transferred to DMEM with 0.1% BSA and incubated with test compounds diluted 1:3 to a final concentration of 3 μM to 12 nM in 0.1% DMSO. Cells were incubated with test compounds for 2 h, washed, and lysed in Bio-Plex whole cell lysis buffer A. Samples are diluted with buffer B 1:1 (v/v) and directly transferred to assay plate or frozen at −80 C. degrees until processed. 50 μL of diluted MDA-MB-231 cell lysates were incubated with about 2000 of 5 micron Bio-Plex beads conjugated with an anti-ERK½ antibody overnight on a shaker at room temperature. The next day, biotinylated phospho-ERK½ sandwich immunoassay was performed, beads are washed 3 times during each incubation and then 50 μL of PE-strepavidin was used as a developing reagent. The relative fluorescence units of pERK½ were detected by counting 25 beads with Bio-Plex flow cell (probe) at high sensitivity. The IC50 was calculated by taking untreated cells as maximum and no cells (beads only) as background using in an Excel spreadsheet based program.

The subject of another assay is MDA-MB-231 cells. The experiment in a line: MDA-MB231 proliferation assay (CellTiter-Glo). Conditions: Homo sapiens, 72 hours. In kind it is cell-based. Here is the method:
Human breast carcinoma cells (MDA MB-231, NCI) were cultured in standard growth medium (DMEM) supplemented with 10% heat-inactivated FBS at 37° C. in 5% CO2 (vol/vol) in a humidified incubator. Cells were plated at a density of 3000 cells per well in 90 μL growth medium in a 96 well culture dish. In order to determine T0h CTG values, 24 hours after plating, 100 μL of CellTiter-Glo Luminescent Reagent (Promega) was added to each well and incubated at room temperature for 30 minutes. Luminescence was recorded on a Wallac Victor II instrument. The CellTiter-Glo reagent results in cell lysis and generation of a luminescent signal proportional to the amount of ATP present, which, in turn is directly proportional to the number of cells present.
Test compounds are dissolved in 100% DMSO to prepare 10 mM stocks. […] The cells with and without individual test compounds were incubated for 72 hours at which time ATP dependent luminescence was measured, as described previously, to yield T72h values. Optionally, the IC50 values can be determined with a least squares analysis program using compound concentration versus percent inhibition. % Inhibition=[1−(T72h test−T0h)/(T72h ctrl−T0h)]×100, where T72h test=ATP dependent luminescence at 72 hours in the presence of test compound T72h ctrl=ATP dependent luminescence at 72 hours in the absence of test compound T0h=ATP dependent luminescence at Time Zero

The test system of assay [1] is phospho-PDGFR-beta in aortic smooth muscle cells. As to the kind of experiment: pPDGFR-beta in AoSMC cells. The assay is classed as cell-based. Particulars: PDGF-BB stimulated. Here is the method: 100K P3-P6 Aortic SMC were plated in each well of 12-well cluster in 1000 μL volume/well of SGM-2 using standard cell culture techniques. Next day, cells were rinsed with 1000 μL D-PBS once, then serum starved in 500 μL SBM (smooth muscle cell basal media) with 0.1% BSA overnight. Compounds were diluted at a dose range from (10 μM to 1 nM in 10-fold dilution steps in DMSO. Final DMSO concentration 0.1%). Remove old media by inversion into the sink quickly then add 100 μL of each dilution to corresponding well of cells for 1 h at 37° C. Cells were then stimulated with 10 ng/mL PDGF-BB ligand for 7 min at 37° C. The media is decanted and 150 μL of isotonic lysis buffer with protease inhibitor tablet (Complete; EDTA-free) and 0.2 mM Na vanadate is added. Cells are lysed for 15 min at 4° C. on shaker in cold room. Lysates are put in eppendorf tubes to which 15 μL of agarose-conjugated anti-PDGFR-beta antibody is added and incubated at 4° C. overnight. Next day, beads are rinsed in 50-volumes of PBS three times and boiled in 1×LDS sample buffer for 5 minutes. Samples were run on 3-8% gradient Tris-Acetate gels and transferred onto Nitrocellulose. Membranes were blocked in 1% BSA/TBS-T for 1 hr. before incubation in anti-phospho-PDGFR-b (Tyr-857) antibody in blocking buffer (1:1000 dilution) for 1 h. […]

T1 sequence (Q16539 whole entry): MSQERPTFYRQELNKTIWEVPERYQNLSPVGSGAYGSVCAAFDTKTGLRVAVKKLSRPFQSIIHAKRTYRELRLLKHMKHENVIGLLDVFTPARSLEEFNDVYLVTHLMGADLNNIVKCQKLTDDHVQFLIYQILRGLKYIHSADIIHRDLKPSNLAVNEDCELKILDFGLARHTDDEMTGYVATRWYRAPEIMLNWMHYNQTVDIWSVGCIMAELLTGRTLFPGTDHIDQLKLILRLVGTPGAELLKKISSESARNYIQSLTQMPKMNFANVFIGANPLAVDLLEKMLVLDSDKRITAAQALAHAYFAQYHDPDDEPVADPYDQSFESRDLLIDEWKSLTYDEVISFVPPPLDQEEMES

Turning to `CNC(=O)c1cc(Oc2ccc(NC(=O)Nc3ccc(Cl)c(C(F)(F)F)c3)c(F)c2)ccn1` [Example 1, 4{4-[3-(4-chloro-3-trifluoromethylphenyl)-ureido]-3-fluorophenoxy}-pyridine-2-carboxylic acid methylamide], the IC50 (as a rule, the concentration that inhibits the measured activity by half) on p38 α2 came out at 0.024 µM; in the assay with pERK in MDA-MB-231 cells it was 0.022 µM; in the assay with MDA-MB-231 cells, 0.6 µM; in assay [1] it was 0.0436 µM.

The values above are taken from US8637553B2, “Fluoro substituted omega-carboxyaryl diphenyl urea for the treatment and prevention of diseases and conditions” (Bayer Healthcare LLC, priority 2003, dated 2014).
